# Test results taken from patent US20230364032A1, “USE OF 2-HOBA TO TREAT ATHEROSCLEROSIS” (Vanderbilt University, priority 2020, published 2023).
# Columns and labels:
# [1] = tested on: peritoneal macrophages; test: Macrophage cytokine mRNA by real time PCR (oxidized LDL or H2O2); format: cell-based, mouse
# Method: […] Apoptotic cells were then detected by Annexin V staining and flow cytometry. […] (6A to 6H) Data are presented as mean±SEM from three independent experiments, ***p<0.001, One-way ANOVA with Bonferroni's post hoc test.
# Total RNA was isolated and purified, cDNA was synthesized, and the mRNA levels of IL-1β, IL-6 and TNF-α were measured by real-time PCR. The data are from three independent experiments. *p<0.05, **p<0.01, ***p<0.001, One-way ANOVA (Bonferroni's post hoc test).
# Total RNA was extracted and purified using Aurum Total RNA kit (Bio-Rad) according to the manufacturer's protocol. Complementary DNA was synthesized with iScript reverse transcriptase (Bio-Rad). Relative quantitation of the target mRNA was performed using specific primers, SYBR probe (Bio-Rad), and iTaqDNA polymerase (Bio-Rad) on IQ5 Thermocylcer (Bio-Rad) and normalized with 18S, as described earlier. 18S, IL-1[…] and TNF-[…] primers used were as described earlier^67.
# [2] = tested on: MDA-LDL; test: MDA adducts in isolated LDL by ELISA; format: in vivo, mouse; conditions: Ldlr−/− mice
# Method: FIG. 21A-D show the effects of 2-HOBA on plasma and LDL MDA adducts in hypercholesterolemic Ldlr^−/− mice. (20A) The MDA content in plasma from Ldlr^−/− mice consuming a Western diet for 16 weeks and treated with 2-HOBA, 4-HOBA, or vehicle was measured by TBARS Assay(*p<0.05, **p<0.01). (20B) The levels of MDA adducts were measured from LDL isolated from the Ldlr^−/− mice by ELISA. N=10 per group, ***p<0.001. (20C) LDL was isolated from control and FH subjects (n=6) pre and post LDL apheresis and the MDA adduct content was measured by ELISA. (20D) LDL was isolated from 2-HOBA, 4-HOBA, or vehicle treated hypercholesterolemic Ldlr^−/− mice. WT peritoneal macrophages were incubated for 24 hrs with the LDL and the cellular cholesterol content was measured as described in methods. (20A-D) One-way ANOVA with Bonferroni's post hoc test).
# The study was approved by the Vanderbilt University Institutional Review Board (IRB), and all participants gave their written informed consent. The human blood samples from patients with severe FH, who were undergoing LDL apheresis, and healthy controls were obtained using an IRB approved protocol. HDL and LDL were prepared from serum by Lipoprotein Purification Kits (Cell BioLabs, Inc.). Sandwich ELISA was used to measure plasma MDA-LDL and MDA-HDL levels following the manufacturer's instructions (Cell BioLabs, Inc.). Briefly, isolated LDL or HDL samples and MDA-Lipoprotein standards were added onto anti-MDA coated plates, and, after blocking, the samples were incubated with biotinylated anti-apoB or anti-ApoAI primary antibody. The samples were then incubated for 1 h with streptavidin-enzyme conjugate and 15 min with substrate solution. After stopping the reaction, the O.D. was measured at 450 nm wavelength. MDA-ApoAI was detected in mouse plasma by immunoprecipitation of ApoAI and western blotting. […] Proteins were visualized and quantitated by Odyssey 3.0 Quantification software (LI-COR).
compound,measurement,setting,value
"NCc1ccccc1O [2-HOBA, 2-hydroxybenzylamine]","levels of IL-1β, IL-6, and TNF-α mRNA","[1]; 500 μM 2-HOBA in the presence of H2O2 (100 μM, 24 hours)",significantly reduced
same,"macrophage inflammatory response: mRNA levels of IL-1β, IL-6, and TNF-α","[1]; oxidized LDL, 24 h, 500 μM",significantly reduced
same,MDA content in LDL,[2],reduced
same,reduction of MDA adduct content in isolated LDL (ELISA),[2]; compared to 4-HOBA,54%
same,reduction of MDA adduct content in isolated LDL (ELISA),[2]; compared to vehicle,57%
